Consider 1 molecule from PMC7987348, “Structural basis for human TRPC5 channel inhibition by two distinct inhibitors” (eLife, 2021).

The subject of one test is TRPC7. Details: method as in Richter et al., 2014. As to conditions: ref Richter et al., 2014; cited from earlier work.
Another test has as its target T1, hTRPC5 WT (Homo sapiens, UniProt Q9UL62).
T1 construct: We use full-length nontagged hTRPC5 construct for FLIPR assay unless indicated otherwise; expressed in transfected cells; host or cells: AD293
T1 sequence (Q9UL62 1-973): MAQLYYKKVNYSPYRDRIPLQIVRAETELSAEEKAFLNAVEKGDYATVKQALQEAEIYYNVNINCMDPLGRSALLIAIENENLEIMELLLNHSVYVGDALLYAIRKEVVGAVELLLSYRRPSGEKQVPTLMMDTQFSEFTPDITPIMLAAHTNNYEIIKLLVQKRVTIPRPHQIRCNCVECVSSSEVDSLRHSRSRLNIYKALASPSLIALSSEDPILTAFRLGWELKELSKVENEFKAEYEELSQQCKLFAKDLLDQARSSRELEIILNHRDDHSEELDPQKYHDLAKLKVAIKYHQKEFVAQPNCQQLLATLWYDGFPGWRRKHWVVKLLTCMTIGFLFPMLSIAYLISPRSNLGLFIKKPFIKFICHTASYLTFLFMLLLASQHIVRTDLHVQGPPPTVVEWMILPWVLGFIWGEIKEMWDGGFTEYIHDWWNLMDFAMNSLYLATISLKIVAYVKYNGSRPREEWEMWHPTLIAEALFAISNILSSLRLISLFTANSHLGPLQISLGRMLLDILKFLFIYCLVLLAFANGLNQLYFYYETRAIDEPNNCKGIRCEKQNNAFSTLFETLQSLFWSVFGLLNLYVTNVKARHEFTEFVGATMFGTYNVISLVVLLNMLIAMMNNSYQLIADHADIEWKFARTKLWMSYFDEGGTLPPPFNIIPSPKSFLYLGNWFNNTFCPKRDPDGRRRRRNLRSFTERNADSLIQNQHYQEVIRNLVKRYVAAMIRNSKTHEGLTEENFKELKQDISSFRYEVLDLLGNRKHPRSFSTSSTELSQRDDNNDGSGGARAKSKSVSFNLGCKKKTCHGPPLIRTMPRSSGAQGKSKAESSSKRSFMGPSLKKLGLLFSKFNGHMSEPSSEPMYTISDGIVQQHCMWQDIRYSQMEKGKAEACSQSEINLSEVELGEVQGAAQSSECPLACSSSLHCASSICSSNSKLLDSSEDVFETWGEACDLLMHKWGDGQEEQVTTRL
Briefly: FLIPR calcium assay, inhibition of extracellular calcium-induced intracellular calcium increase. In kind it is cell-based.

A further test has as its target T2, hTRPC5 F414M (Homo sapiens, UniProt Q9UL62, F414M).
T2 construct: We use full-length nontagged hTRPC5 construct for FLIPR assay unless indicated otherwise; expressed in transfected cells; host or cells: AD293
T2 sequence (Q9UL62 1-973 F414M): T1 sequence (Q9UL62 1-973) with F414M
Briefly: FLIPR calcium assay, hTRPC5 mutant F414M. In kind it is cell-based. On the procedure: […]. Then the suspended cell culture was further diluted for 5.4- to 7-fold with culture medium and seeded onto black well, clear bottom, poly-D-lysine-coated 96-well plate (Costar) and cultured overnight. We use full-length nontagged hTRPC5 construct for FLIPR assay unless indicated otherwise. hTRPC5 plasmids were transfected into AD293 cells (60-80% confluence) with PEI. 30–40 hr post-transfection, culture medium was discarded and cells were incubated with 50 μl per well of 4 μM Rhod-2/AM (AAT Bioquest) in TARODES’s buffer (10 mM HEPES, 150 mM NaCl, 4 mM KCl, 2 mM MgCl2, 2 mM CaCl2, 11 mM glucose, pH 7.4) supplemented with 0.02% Pluronic F-127 (Sigma) for 5 min in dark at room temperature. Then dye was removed and replaced with 50 μl of TARODE’s buffer per well. The application of compounds and detection of intracellular calcium elevation were performed using FLIPR-TETRA (Molecular Devices) at room temperature (25–27°C). Fluorescence signals were read with excitation/emission at 510–545/565–625 nm.
[…]. Then fluorescence was measured for 300 s.
Buffer A contains 2× concentration of working concentration of inhibitor. […]. for control-Min, both buffer A and buffer B were replaced by TARODE’s buffer.
[…]; the average of fluorescence value of last 20 time points was considered as the ‘end fluorescence’. The value of ‘end fluorescence’ minus ‘start fluorescence’ was considered as ‘signal value’ for each well. […].
Three independent experiments were performed on different days (biological replicates), with each experiment containing three replicates (technique replicates).

The next test deals with T3, hTRPC5 (Homo sapiens, UniProt Q9UL62).
T3 sequence (Q9UL62 1-973): T1 sequence (Q9UL62 1-973)
Briefly: Whole cell recording of EA-elicited hTRPC5 currents in low calcium condition. As to conditions: 50 μM CMZ; 200 nM EA; 1 mM EGTA and 1 mM EDTA to chelate intracellular Ca2+; −60 mV.

The mark [1] stands for this setting: CMZ, 14 mM extracellular calcium, read-out: IC50.
Setting [2] is: CMZ, log of IC50 in μM, logIC50 ± SEM, n = 3, read-out: LogIC50 (converted).
The mark [3] stands for this setting: read-out: normalized RFU (% WT), Clemizole 0.200195 μM, 14 mM Ca2+, each column one independent experiment.
[4] abbreviates: read-out: normalized RFU (% WT), Clemizole 0.800781 μM, 14 mM Ca2+, each column one independent experiment.

Residue numbers refer to the chain shown, from its start. Like-named read-outs stand apart in the source and are kept apart here.

A word on the Hill slope: it is the slope factor of the fitted curve.

As for `Clc1ccc(Cn2c(CN3CCCC3)nc3ccccc32)cc1` [CMZ, clemizole], the “fold more potent against TRPC5 than TRPC7” value in the test with TRPC7 was 26 fold. The Hill slope at hTRPC5 WT (CMZ) is listed as −2.52; at hTRPC5 F414M (CMZ) it was −1.45. Moreover, the IC50 on hTRPC5 WT (setting [1]) was 3.07 µM; on hTRPC5 WT (setting [2]), 3.09 µM; on hTRPC5 F414M (setting [1]), 2.15 µM; at hTRPC5 F414M (setting [2]) it was 2.14 µM. For the same molecule, the remaining activity at 0.200195 µM at hTRPC5 WT (setting [3]) was found to be 76.4%; on hTRPC5 F414M (setting [3]), 130%. Moreover, the remaining activity at 0.800781 µM at hTRPC5 WT (setting [4]) amounted to 72.6%; at hTRPC5 F414M (setting [4]), 107%. Further, the remaining activity at 1.60156 µM on hTRPC5 WT (read-out: normalized RFU (% WT), Clemizole 1.60156 μM, 14 mM Ca2+, each column one independent experiment) amounted to 70.5%. At hTRPC5 F414M (read-out: normalized RFU (% WT), Clemizole 0.400391 μM, 14 mM Ca2+, each column one independent experiment), the remaining activity at 0.400391 µM is 116%. Moreover, on hTRPC5 F414M (read-out: normalized RFU (% WT), Clemizole 6.40625 μM, 14 mM Ca2+, each column one independent experiment), the remaining activity at 6.40625 µM was 32.1%. Further, on hTRPC5, the “inhibition of EA-elicited currents” value is “could inhibit EA-elicited currents”.
